Test systems include A549 NSCLC; SF-268 CNS; OVCAR-8 ovarian; RXF 393 renal; M14 melanoma; NCI-H522 lung; SNB-75 CNS; MDA-MB-435; HOP-62 NSCLC; HL-60(TB) leukemia.
Assay in all cases: growth of human tumour cells (NCI), 48 h

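How tested: cells in 96-well plates exposed to compound for 48 hours at five concentrations. GI50 = concentration required for 50% inhibition of growth. TGI denotes the concentration required for complete inhibition of growth.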

`CN(CCC(=O)/C(=C\c1ccccc1)c1ccc(Cl)cc1)Cc1ccccc1`: the GI50 in the assay on A549 NSCLC is 12.8 µM; in the assay on SF-268 CNS it was 2.76 µM; in the assay with OVCAR-8 ovarian it was 3.32 µM; with RXF 393 renal, 1.86 µM; with M14 melanoma, 2.7 µM; with NCI-H522 lung, 1.69 µM. For the same compound, the GI50 is 10.2 µM with SNB-75 CNS, 1.83 µM in the assay with MDA-MB-435, 2.87 µM in the assay with HOP-62 NSCLC and 5.95 µM with HL-60(TB) leukemia. Further, the TGI in the assay on A549 NSCLC is 31.9 µM; with SF-268 CNS, 10 µM; in the assay with OVCAR-8 ovarian it was 14.8 µM; in the assay with RXF 393 renal it was 3.69 µM; in the assay on M14 melanoma it was 7.99 µM; with NCI-H522 lung, 3.19 µM. Moreover, the TGI in the assay on SNB-75 CNS was 31.8 µM; with MDA-MB-435 it was 4.07 µM; with HOP-62 NSCLC, 7.46 µM; in the assay with HL-60(TB) leukemia it was 34.5 µM.

As to `O=C1N(Cc2ccccc2Cl)c2ccccc2C12NN=C(c1cccc(Cl)c1)S2` (stereo not given), the GI50 in the assay with A549 NSCLC was 1.86 µM; with SF-268 CNS it was 1.59 µM; in the assay with OVCAR-8 ovarian, 1.96 µM; in the assay on RXF 393 renal, 1.76 µM; in the assay on M14 melanoma it was 1.7 µM; in the assay with NCI-H522 lung it was 1.72 µM. Moreover, the GI50 is 1.47 µM in the assay on SNB-75 CNS, 1.75 µM in the assay with MDA-MB-435, 1.55 µM in the assay with HOP-62 NSCLC and 2.49 µM in the assay on HL-60(TB) leukemia. Also, the TGI in the assay with A549 NSCLC is 3.41 µM; in the assay with SF-268 CNS it was 3.26 µM; with OVCAR-8 ovarian it was 4.41 µM; in the assay with RXF 393 renal, 3.4 µM; with M14 melanoma it was 3.25 µM; in the assay with NCI-H522 lung, 3.48 µM. Moreover, the TGI in the assay with SNB-75 CNS is 2.84 µM; with MDA-MB-435 it was 3.28 µM; in the assay with HOP-62 NSCLC, 2.89 µM; in the assay on HL-60(TB) leukemia it was 6.32 µM.

Regarding `O=Cc1ccc(-c2ccc(-c3nc4ccccc4s3)cc2)s1`, the GI50 in the assay with A549 NSCLC is > 100 µM; in the assay on SF-268 CNS, 71.7 µM; in the assay on OVCAR-8 ovarian, 80.9 µM; in the assay with RXF 393 renal it was > 100 µM; in the assay on M14 melanoma, 54.6 µM; in the assay on NCI-H522 lung, 69.1 µM. Moreover, the GI50 in the assay on SNB-75 CNS is > 100 µM; in the assay on MDA-MB-435 it was 56.2 µM; in the assay on HOP-62 NSCLC, > 100 µM; in the assay with HL-60(TB) leukemia, 34.8 µM. In addition, the TGI with A549 NSCLC, in the assay on SF-268 CNS, in the assay on OVCAR-8 ovarian, in the assay with RXF 393 renal, in the assay with M14 melanoma and in the assay with NCI-H522 lung was > 100 µM each time. In addition, the TGI in the assay on SNB-75 CNS, with MDA-MB-435, in the assay on HOP-62 NSCLC and in the assay on HL-60(TB) leukemia was > 100 µM in each case.

`CCOC(=O)Nc1cc2ccccc2c(N=Nc2ccccc2)c1O`: the TGI was > 100 µM in the assay with A549 NSCLC; > 100 µM with SF-268 CNS; > 100 µM in the assay with OVCAR-8 ovarian; 69.4 µM in the assay with RXF 393 renal; > 100 µM in the assay on M14 melanoma; > 100 µM with NCI-H522 lung. The TGI in the assay on SNB-75 CNS, in the assay on MDA-MB-435, with HOP-62 NSCLC and in the assay on HL-60(TB) leukemia was > 100 µM each time.

`COC(=O)C(C(=O)OC)C(Br)C(Br)C(Br)c1ccccc1` (stereo not given): the GI50 was 16.8 µM in the assay on A549 NSCLC; 14.6 µM with SF-268 CNS; 4.86 µM in the assay with OVCAR-8 ovarian; 4.17 µM with RXF 393 renal; 12.9 µM in the assay with M14 melanoma; 1.69 µM with NCI-H522 lung. The GI50 with SNB-75 CNS was 12.5 µM; with MDA-MB-435, 5.66 µM; with HOP-62 NSCLC, 16.9 µM; in the assay with HL-60(TB) leukemia, 2.59 µM. Further, the TGI in the assay with A549 NSCLC was 32.6 µM; in the assay with SF-268 CNS, 29.6 µM; with OVCAR-8 ovarian it was 17.2 µM; in the assay on RXF 393 renal it was 15.9 µM; in the assay on M14 melanoma, 27.5 µM; with NCI-H522 lung, 3.33 µM. The TGI in the assay with SNB-75 CNS turned out to be 25 µM; in the assay on MDA-MB-435, 20.7 µM; in the assay with HOP-62 NSCLC, 36 µM; in the assay with HL-60(TB) leukemia, 6.47 µM.

For the compound `COc1cc(Cl)cc(-c2nn(-c3cccc(NC(=O)Nc4ccc(Cl)c(Cl)c4)c3)cc2-c2ccncc2)c1`, the GI50 with A549 NSCLC was 1.48 µM; with SF-268 CNS, 3.27 µM; with OVCAR-8 ovarian it was 2.3 µM; in the assay on RXF 393 renal, 1.96 µM; in the assay on M14 melanoma, 2.52 µM; in the assay with NCI-H522 lung, 1.29 µM. In addition, the GI50 in the assay with SNB-75 CNS is 2.11 µM; with MDA-MB-435, 2.08 µM; with HOP-62 NSCLC, 3.38 µM; in the assay on HL-60(TB) leukemia, 2.19 µM. Moreover, the TGI in the assay on A549 NSCLC is 15.3 µM; in the assay with SF-268 CNS, > 100 µM; with OVCAR-8 ovarian, 11.2 µM; with RXF 393 renal it was 7.25 µM; in the assay with M14 melanoma it was 10.9 µM; with NCI-H522 lung, 4.48 µM. Also, the TGI worked out at 48.6 µM with SNB-75 CNS, 6 µM with MDA-MB-435, 35.1 µM in the assay on HOP-62 NSCLC and 5.68 µM in the assay with HL-60(TB) leukemia.
